Laboratory results taken from PMC6268179, “Synthesis, Docking Studies and Biological Evaluation of Benzo[b]thiophen-2-yl-3-(4-arylpiperazin-1-yl)-propan-1-one Derivatives on 5-HT1A Serotonin Receptors” (Molecules, 2012).

Assays:
5-HT1A receptor [1] = biological target: T1, 5-HT1A receptor (Rattus norvegicus, UniProt P19327); assay: radioligand displacement of [3H]-8-OH-DPAT, single dose […]
T1 construct: gene Htr1a; rat cerebral cortex membranes
T1 sequence (P19327 1-422): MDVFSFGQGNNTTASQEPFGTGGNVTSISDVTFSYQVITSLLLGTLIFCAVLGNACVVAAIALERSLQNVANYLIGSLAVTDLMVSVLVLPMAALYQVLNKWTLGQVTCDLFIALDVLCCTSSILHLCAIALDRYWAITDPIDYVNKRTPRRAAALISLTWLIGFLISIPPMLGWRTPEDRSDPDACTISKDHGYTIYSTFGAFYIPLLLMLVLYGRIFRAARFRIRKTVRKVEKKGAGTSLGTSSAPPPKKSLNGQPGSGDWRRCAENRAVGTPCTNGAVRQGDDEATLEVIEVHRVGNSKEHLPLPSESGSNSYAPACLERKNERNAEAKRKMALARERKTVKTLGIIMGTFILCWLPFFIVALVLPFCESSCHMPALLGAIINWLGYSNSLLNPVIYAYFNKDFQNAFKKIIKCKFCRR

5-HT1A receptor [2] = biological target: T1, 5-HT1A receptor; assay: radioligand displacement of [3H]-8-OH-DPAT, dose-response; format: binding

Ki (5-HT1A receptor [2]) [nM] | Compound | inhibition at 1 µM (5-HT1A receptor [1]) [%]
– | COc1ccccc1N1CCN(CCC(=O)c2cc3ccccc3s2)CC1 [7d, 3-[4-(2-Methoxyphenyl)piperazin-1-yl]-1-(benzo[b]thiophen-2-yl)-1-propanone] | 52 ± 7
2300 | O=C(CCN1CCN(c2ccccn2)CC1)c1cc2ccccc2s1 [7e, 1-(benzo[b]thiophen-2-yl)-3-(4-(pyridin-2-yl)piperazin-1-yl)propan-1-one] | –
